According to ChEMBL document CHEMBL5236603, “Discovery of mobocertinib, a potent, oral inhibitor of EGFR exon 20 insertion mutations in non-small cell lung cancer” (Bioorg Med Chem Lett, 2023):

Tests used:
[1] = test system: BaF3; test: In vivo antitumor activity against mouse BaF3 cells expressing EGFR exon 20 insertion (ex20ins) ASV implanted in SCID mouse assessed as tumor growth inhibition at 30 mg/kg, po administered for 7 consecutive days; assay type: functional; conditions: BaF3, 168 h, time 7 day, read-out: TGI
[2] = biological target: T1, Cytoplasmic tyrosine-protein kinase BMX (Homo sapiens) (UniProt P51813); test: Inhibition of human BMX at 1 uM by hotspot assay relative to control
T1 sequence (whole entry): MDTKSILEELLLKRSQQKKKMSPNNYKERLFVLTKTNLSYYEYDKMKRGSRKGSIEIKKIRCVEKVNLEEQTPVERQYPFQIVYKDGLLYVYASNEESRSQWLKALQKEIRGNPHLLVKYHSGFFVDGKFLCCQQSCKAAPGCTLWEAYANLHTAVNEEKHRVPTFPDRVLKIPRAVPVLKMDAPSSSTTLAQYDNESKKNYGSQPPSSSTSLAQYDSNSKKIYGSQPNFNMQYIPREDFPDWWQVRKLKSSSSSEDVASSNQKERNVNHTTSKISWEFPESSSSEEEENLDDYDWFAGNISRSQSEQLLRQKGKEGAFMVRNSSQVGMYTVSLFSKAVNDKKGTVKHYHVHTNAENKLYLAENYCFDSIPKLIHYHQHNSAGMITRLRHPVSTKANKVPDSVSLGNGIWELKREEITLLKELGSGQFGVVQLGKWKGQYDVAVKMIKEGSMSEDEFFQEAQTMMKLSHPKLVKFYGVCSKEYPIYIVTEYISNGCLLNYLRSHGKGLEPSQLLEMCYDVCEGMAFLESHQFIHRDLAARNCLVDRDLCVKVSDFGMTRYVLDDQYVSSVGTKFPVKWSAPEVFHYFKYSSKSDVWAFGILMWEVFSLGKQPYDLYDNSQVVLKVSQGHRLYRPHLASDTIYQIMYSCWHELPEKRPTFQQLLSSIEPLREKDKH

[3] = biological target: T2, Tyrosine-protein kinase Tec (Homo sapiens) (UniProt P42680); test: Inhibition of human TEC at 1 uM by hotspot assay relative to control
T2 sequence (whole entry): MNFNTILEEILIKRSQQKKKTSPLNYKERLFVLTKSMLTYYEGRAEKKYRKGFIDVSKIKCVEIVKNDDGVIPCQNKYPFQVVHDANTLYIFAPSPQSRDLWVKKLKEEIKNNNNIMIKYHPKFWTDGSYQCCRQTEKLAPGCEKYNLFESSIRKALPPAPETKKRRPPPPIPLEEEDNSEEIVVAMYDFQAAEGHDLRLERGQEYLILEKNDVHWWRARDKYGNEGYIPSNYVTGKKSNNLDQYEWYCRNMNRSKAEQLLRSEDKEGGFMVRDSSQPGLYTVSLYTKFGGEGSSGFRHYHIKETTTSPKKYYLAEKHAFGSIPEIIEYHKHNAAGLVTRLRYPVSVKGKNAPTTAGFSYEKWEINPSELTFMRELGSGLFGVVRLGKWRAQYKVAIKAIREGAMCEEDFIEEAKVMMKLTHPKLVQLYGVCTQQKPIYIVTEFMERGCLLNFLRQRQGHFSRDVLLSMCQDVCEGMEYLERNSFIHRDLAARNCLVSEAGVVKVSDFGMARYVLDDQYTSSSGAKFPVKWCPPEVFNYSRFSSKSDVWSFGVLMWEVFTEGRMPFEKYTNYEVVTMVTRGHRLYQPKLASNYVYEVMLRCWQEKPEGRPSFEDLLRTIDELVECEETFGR

[4] = biological target: T3, Tyrosine-protein kinase ITK/TSK (Homo sapiens) (UniProt Q08881); test: Inhibition of human ITK at 1 uM by hotspot assay relative to control
T3 sequence (whole entry): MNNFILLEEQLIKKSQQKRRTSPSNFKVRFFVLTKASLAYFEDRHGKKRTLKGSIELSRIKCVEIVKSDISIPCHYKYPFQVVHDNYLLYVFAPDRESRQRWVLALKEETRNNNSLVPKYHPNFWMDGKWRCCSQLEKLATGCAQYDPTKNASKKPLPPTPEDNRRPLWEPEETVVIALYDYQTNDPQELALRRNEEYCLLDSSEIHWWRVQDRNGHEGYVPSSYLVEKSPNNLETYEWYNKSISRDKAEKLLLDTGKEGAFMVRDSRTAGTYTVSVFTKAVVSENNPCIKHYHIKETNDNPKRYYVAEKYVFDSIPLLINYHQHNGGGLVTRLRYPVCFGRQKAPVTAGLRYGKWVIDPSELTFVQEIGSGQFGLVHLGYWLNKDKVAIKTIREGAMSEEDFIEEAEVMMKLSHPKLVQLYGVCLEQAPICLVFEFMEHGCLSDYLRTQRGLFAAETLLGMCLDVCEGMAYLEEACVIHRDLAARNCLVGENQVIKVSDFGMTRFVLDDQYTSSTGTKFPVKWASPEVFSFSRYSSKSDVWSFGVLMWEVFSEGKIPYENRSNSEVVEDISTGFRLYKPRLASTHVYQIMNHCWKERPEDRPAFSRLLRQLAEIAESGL

[5] = AUClast in CD-1 rat at 10 mg/kg, po by LC/MS/MS analysis; assay type: ADME, organism-based; set-up: dose 10 mg/kg, route po; conditions: in vivo
[6] = biological target: Tyrosine-protein kinase Blk (Homo sapiens) (UniProt P51451); test: Inhibition of human BLK at 1 uM by hotspot assay relative to control
[7] = Cmax in CD-1 mouse at 10 mg/kg, po by LC/MS/MS analysis; assay type: ADME, organism-based; set-up: dose 10 mg/kg, route po; conditions: in vivo
[8] = Inhibition of mouse EGFR A767_V769dup V769_D770insASV (ASV) mutant stably expressed in mouse BaF3 cells assessed as cell viability incubated for 3 days by Cell Titer-Glo assay; assay type: cell-based; conditions: BaF3, 72 h
[9] = Toxicity in SCID mouse assessed as body weight change at 100 mg/kg, po administered for 7 consecutive days; assay type: organism-based; conditions: in vivo
[10] = biological target: Receptor tyrosine-protein kinase erbB-2 (Homo sapiens) (UniProt P04626); test: Inhibition of human HER2 at 1 uM by hotspot assay relative to control
[11] = biological target: Receptor tyrosine-protein kinase erbB-4 (Homo sapiens) (UniProt Q15303); test: Inhibition of human HER4 at 1 uM by hotspot assay relative to control
[12] = Inhibition of mouse EGFR V769_D770insASV mutant stably expressed in mouse BaF3 cells assessed as cell viability incubated for 3 days by Cell Titer-Glo assay; assay type: cell-based; conditions: BaF3, 72 h
[13] = biological target: Epidermal growth factor receptor (Homo sapiens, UniProt P00533); test: Inhibition of […]-induced wild type EGFR phosphorylation in human A-431 cells pretreated for 2 hrs followed by EGF stimulation by immune assay; assay type: cell-based
Sequence of Epidermal growth factor receptor (P00533 whole entry): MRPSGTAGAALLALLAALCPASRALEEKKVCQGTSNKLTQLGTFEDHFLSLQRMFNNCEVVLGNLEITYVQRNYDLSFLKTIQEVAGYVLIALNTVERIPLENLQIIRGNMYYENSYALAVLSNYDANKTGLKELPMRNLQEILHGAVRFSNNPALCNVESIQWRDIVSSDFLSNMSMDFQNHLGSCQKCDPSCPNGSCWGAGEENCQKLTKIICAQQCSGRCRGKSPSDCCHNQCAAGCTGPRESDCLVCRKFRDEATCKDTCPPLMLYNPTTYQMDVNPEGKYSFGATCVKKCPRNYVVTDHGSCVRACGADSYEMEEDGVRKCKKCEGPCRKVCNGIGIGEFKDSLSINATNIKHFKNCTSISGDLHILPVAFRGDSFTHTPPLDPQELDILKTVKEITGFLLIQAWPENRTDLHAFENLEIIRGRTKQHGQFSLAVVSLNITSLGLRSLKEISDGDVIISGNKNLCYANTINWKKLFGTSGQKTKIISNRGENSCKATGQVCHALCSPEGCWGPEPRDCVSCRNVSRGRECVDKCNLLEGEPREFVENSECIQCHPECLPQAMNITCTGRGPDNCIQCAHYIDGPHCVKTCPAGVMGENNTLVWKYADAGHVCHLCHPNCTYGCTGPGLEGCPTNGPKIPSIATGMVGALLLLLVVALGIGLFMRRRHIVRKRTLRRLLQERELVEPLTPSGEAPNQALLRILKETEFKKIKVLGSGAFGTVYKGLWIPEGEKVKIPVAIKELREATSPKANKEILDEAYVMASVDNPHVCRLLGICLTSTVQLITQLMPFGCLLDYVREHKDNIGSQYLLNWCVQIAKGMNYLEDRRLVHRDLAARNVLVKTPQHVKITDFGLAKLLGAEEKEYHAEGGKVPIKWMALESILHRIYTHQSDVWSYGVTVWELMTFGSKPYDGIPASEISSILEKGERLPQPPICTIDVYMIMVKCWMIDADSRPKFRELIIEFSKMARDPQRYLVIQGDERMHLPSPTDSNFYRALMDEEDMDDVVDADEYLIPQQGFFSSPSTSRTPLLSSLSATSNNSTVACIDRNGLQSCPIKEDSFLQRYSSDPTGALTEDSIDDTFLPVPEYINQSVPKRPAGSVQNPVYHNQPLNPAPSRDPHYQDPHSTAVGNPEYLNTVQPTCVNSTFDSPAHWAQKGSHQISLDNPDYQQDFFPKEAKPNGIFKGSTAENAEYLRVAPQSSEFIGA

Sequence of Receptor tyrosine-protein kinase erbB-4 (Homo sapiens) (Q15303 whole entry): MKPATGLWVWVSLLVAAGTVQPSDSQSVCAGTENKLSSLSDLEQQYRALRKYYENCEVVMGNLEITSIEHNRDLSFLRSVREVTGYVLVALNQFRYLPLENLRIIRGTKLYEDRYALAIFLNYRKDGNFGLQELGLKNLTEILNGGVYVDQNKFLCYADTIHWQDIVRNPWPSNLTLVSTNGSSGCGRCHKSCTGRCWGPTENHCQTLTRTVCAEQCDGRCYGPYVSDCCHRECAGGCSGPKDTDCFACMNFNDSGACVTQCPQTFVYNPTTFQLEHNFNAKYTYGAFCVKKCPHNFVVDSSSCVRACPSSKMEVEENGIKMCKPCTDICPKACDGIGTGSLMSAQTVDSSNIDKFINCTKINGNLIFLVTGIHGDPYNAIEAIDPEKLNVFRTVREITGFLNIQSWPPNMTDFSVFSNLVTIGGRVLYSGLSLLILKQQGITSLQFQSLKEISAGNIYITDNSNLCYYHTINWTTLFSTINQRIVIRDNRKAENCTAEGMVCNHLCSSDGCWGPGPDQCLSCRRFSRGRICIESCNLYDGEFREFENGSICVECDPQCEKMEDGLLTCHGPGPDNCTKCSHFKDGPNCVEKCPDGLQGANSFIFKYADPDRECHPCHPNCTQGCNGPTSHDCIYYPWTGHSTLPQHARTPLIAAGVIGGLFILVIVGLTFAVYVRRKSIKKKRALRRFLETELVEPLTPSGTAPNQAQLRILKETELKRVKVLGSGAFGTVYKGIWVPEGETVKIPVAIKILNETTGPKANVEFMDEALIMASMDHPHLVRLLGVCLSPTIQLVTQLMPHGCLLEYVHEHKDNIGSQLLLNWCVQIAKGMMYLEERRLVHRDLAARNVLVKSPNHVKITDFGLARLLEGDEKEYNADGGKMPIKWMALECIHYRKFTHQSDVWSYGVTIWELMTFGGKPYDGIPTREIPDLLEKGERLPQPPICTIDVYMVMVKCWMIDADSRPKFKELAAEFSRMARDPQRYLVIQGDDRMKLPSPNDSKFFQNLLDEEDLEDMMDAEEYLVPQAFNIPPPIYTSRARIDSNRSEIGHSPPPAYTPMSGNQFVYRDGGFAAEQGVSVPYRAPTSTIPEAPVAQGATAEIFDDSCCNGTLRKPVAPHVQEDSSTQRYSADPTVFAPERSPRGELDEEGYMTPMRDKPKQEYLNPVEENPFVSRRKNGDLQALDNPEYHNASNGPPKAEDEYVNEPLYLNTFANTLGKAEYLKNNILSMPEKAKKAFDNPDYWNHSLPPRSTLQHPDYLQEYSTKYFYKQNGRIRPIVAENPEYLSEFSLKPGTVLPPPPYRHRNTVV
Sequence of Tyrosine-protein kinase Blk (Homo sapiens) (P51451 2-505 limits assumed): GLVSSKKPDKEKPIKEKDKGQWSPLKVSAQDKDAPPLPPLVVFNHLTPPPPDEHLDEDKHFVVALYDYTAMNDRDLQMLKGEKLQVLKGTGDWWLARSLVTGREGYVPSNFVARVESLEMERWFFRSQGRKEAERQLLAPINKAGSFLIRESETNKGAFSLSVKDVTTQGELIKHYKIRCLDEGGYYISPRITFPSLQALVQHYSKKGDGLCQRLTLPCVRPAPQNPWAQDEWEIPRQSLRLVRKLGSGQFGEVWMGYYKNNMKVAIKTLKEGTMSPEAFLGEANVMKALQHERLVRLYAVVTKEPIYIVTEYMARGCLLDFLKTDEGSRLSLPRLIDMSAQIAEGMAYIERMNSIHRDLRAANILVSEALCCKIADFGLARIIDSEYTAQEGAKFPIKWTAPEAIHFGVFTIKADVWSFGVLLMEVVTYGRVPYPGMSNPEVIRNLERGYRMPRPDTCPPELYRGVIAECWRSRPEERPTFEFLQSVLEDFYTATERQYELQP
Sequence of Receptor tyrosine-protein kinase erbB-2 (Homo sapiens) (P04626 whole entry): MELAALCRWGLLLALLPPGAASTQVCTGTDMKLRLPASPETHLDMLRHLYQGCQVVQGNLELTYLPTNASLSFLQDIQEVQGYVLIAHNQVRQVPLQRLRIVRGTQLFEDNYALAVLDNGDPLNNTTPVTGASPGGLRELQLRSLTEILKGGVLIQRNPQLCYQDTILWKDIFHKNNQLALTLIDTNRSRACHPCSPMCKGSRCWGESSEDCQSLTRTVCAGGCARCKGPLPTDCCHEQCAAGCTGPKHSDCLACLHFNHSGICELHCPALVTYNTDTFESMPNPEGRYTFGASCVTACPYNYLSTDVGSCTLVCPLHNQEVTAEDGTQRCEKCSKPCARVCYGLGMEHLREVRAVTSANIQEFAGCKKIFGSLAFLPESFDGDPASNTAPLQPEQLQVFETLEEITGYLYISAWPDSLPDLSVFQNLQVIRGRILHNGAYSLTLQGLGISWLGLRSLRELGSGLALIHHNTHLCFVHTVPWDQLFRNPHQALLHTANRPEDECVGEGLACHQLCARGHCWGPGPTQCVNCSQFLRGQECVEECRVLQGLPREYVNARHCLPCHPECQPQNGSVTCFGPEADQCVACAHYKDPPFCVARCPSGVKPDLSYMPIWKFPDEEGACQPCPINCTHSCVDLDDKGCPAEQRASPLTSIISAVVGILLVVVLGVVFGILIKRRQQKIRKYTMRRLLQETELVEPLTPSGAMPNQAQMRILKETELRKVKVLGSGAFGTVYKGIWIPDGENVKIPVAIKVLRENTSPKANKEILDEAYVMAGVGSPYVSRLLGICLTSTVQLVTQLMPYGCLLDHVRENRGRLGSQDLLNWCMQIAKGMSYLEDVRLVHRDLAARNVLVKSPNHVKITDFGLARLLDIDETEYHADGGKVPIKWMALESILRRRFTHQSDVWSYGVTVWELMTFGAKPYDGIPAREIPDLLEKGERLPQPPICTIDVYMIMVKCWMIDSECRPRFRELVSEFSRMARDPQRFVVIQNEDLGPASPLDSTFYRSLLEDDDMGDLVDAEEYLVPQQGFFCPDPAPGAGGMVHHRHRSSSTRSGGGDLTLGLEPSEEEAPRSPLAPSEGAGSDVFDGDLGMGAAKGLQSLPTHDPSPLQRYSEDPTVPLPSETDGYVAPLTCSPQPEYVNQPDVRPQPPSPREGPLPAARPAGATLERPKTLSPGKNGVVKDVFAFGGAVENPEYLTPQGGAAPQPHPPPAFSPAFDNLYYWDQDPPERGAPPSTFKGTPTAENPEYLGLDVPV

C=CC(=O)Nc1cc(Nc2ncc(C(=O)OC(C)C)c(-c3cn(C)c4ccccc34)n2)c(OC)cc1N(C)CCN(C)C [MOBOCERTINIB]
inhibition in vivo at 30 mg/kg [1]: 77%
inhibition [2]: > 81%
inhibition [3]: > 81%
inhibition [4]: > 81%
AUC(0-t) [5]: 1780 ng·h/mL
inhibition [6]: > 81%
Cmax [7]: 82 ng/mL
IC50 [8]: 11 nM
Activity [9]: Non-Toxic
inhibition [10]: > 97%
inhibition [11]: > 97%
IC50 [12]: 11 nM
IC50 [13]: 34.5 nM
